pIC50: −log10 of the molar value. Each block holds one molecule with its values, some of them ahead of it. Activity calls are given as the source filed them. No cut-off for these calls is given here.
Assays:
[1] = test system: BGC-823; test: Antiproliferative activity against human BGC-823 cells assessed as inhibition of cell proliferation incubated for 48 hrs by MTT assay; format: functional, cell-based; details: BGC-823, 48 h
[2] = test system: HepG2; test: Antiproliferative activity against human HepG2 cells assessed as inhibition of cell proliferation incubated for 48 hrs by MTT assay; format: functional, cell-based; details: HepG2, 48 h
[3] = test system: MCF7; test: Antiproliferative activity against human MCF7 cells assessed as inhibition of cell proliferation incubated for 48 hrs by MTT assay; format: functional, cell-based; details: MCF7, 48 h
[4] = Cytotoxicity against human GES1 cells assessed as inhibition of cell proliferation incubated for 48 hrs by MTT assay; format: toxicity, cell-based
[5] = Cytotoxicity against human MCF-10A cells assessed as inhibition of cell proliferation incubated for 48 hrs by MTT assay; format: toxicity, cell-based
[6] = Cytotoxicity against human L02 cells assessed as inhibition of cell proliferation incubated for 48 hrs by MTT assay; format: toxicity, cell-based
[7] = test system: SGC-7901; test: Antiproliferative activity against human SGC-7901 cells assessed as inhibition of cell proliferation incubated for 48 hrs by MTT assay; format: functional, cell-based; details: SGC-7901, 48 h
[8] = test system: BGC-823; test: Induction of apoptosis in human BGC-823 cells assessed as early apoptotic cells at 1 uM incubated for 48 hrs by Annexin V-FITC/PI staining based flow cytometric analysis ( Rvb = 1.68 %); format: functional
[9] = test system: NCI-N87; test: Antiproliferative activity against human NCI-N87 cells assessed as inhibition of cell proliferation incubated for 48 hrs by MTT assay; format: functional, cell-based; details: NCI-N87, 48 h
[10] = Acute toxicity in ip dosed ICR mouse assessed as mortality rate by measuring ratio at 1.91 logarithm of dose relative to total number of mouse; format: organism-based; details: in vivo
[11] = test system: MGC-803; test: Antiproliferative activity against human MGC-803 cells assessed as inhibition of cell proliferation incubated for 48 hrs by MTT assay; format: functional, cell-based; details: MGC-803, 48 h
[12] = test system: BGC-823; test: Antiproliferative activity against human BGC-823 cells assessed as inhibition of cell proliferation preincubated with H2O2 for 2 hrs followed by compound addition and measured after 48 hrs by MTT assay; format: functional, cell-based
[13] = test system: BGC-823; test: Induction of apoptosis in human BGC-823 cells assessed as late apoptotic cells at 1 uM incubated for 48 hrs by Annexin V-FITC/PI staining based flow cytometric analysis ( Rvb = 5.61 %); format: functional
[14] = test system: BGC-823; test: Antitumor activity against human BGC-823 cells xenografted in BALB/c nude mouse assessed as tumor growth inhibition at 5 mg/kg, ip administered for 21 days relative to control; format: functional; details: BGC-823, 504 h, time 21 day, read-out: TGI
[15] = Acute toxicity in ip dosed ICR mouse assessed as animal death at 2.16 logarithm of dose; format: organism-based; details: in vivo
[16] = test system: BGC-823; test: Induction of apoptosis in human BGC-823 cells assessed as viable cells at 1 uM incubated for 48 hrs by Annexin V-FITC/PI staining based flow cytometric analysis ( Rvb = 90.09 %); format: functional; details: read-out: Activity
[17] = Acute toxicity in ip dosed ICR mouse assessed as lethal dose; format: organism-based; details: in vivo
[18] = Binding affinity to DTT in PBS assessed as UV peak appearance at 288 nm at 360 uM by UV-Vis spectra analysis
[19] = test system: BGC-823; test: Induction of ROS generation in human BGC-823 cells assessed as cells with green fluorescence at 1 uM incubated for 24 hrs by DCFH-DA staining based analysis relative to control; format: functional
[20] = Acute toxicity in ip dosed ICR mouse assessed as animal death at 2.03 logarithm of dose; format: organism-based; details: in vivo
[21] = Acute toxicity in ip dosed ICR mouse assessed as mortality rate by measuring ratio at 1.80 logarithm of dose relative to total number of mouse; format: organism-based; details: in vivo
[22] = Acute toxicity in ip dosed ICR mouse assessed as mortality rate by measuring ratio at 1.68 logarithm of dose relative to total number of mouse; format: organism-based; details: in vivo
[23] = Acute toxicity in ip dosed ICR mouse assessed as mortality rate by measuring ratio at 1.57 logarithm of dose relative to total number of mouse; format: organism-based; details: in vivo
[24] = Acute toxicity in ip dosed ICR mouse assessed as mortality rate by measuring ratio at 2.04 logarithm of dose relative to total number of mouse; format: organism-based; details: in vivo
[25] = Selectivity index, ratio of IC50 for cytotoxicity against human GES1 cells to IC50 for antiproliferative activity against human BGC-823 cells in presence of H2O2; format: toxicity, cell-based; details: GES1 cells and BGC-823 cells, read-out: Ratio IC50
[26] = test system: BGC-823; test: Induction of apoptosis in human BGC-823 cells assessed as necrotic cells at 1 uM incubated for 48 hrs by Annexin V-FITC/PI staining based flow cytometric analysis ( Rvb = 1.79 %); format: functional
[27] = Acute toxicity in ip dosed ICR mouse assessed as mortality rate by measuring ratio at 2.16 logarithm of dose relative to total number of mouse; format: organism-based; details: in vivo
[28] = Acute toxicity in ip dosed ICR mouse assessed as animal death at 1.57 logarithm of dose; format: organism-based; details: in vivo

SMILES: CC1(C)CC[C@]2(C(=O)OCCCOC(=O)Cc3ccc(OCc4ccc(B5OC(C)(C)C(C)(C)O5)cc4)cc3)CC[C@]3(C)[C@H](C(=O)C=C4[C@@]5(C)C=C(C#N)C(=O)C(C)(C)[C@@H]5CC[C@]43C)[C@@H]2C1
pIC50 [1]: 5.80
pIC50 [2]: 5.60
pIC50 [3]: 5.85
IC50 at 48 h [4]: 2.2 µM
IC50 at 48 h [5]: 2.5 µM
IC50 at 48 h [6]: 4.1 µM

SMILES: COC(=O)[C@]12CCC(C)(C)C[C@H]1[C@H]1C(=O)C=C3[C@@]4(C)C=C(C#N)C(=O)C(C)(C)[C@@H]4CC[C@@]3(C)[C@]1(C)CC2 [BARDOXOLONE METHYL]
pIC50 [7]: 6.22
Activity [8]: 6.59%
pIC50 [9]: 6.10
Ratio [10]: 0.67
pIC50 [11]: 6.05
pIC50 [12]: 6.30
Activity [13]: 24.5%
pIC50 [1]: 6.30
pIC50 [2]: 6.30
pIC50 [3]: 5.92
inhibition in vivo at 5 mg/kg [14]: 51.7%
Activity [15]: Toxic
viability at 1 µM [16]: 61.3%
LD50 [17]: 61.7 mg/kg
Activity [18]: Active
IC50 at 48 h [4]: 0.4 µM
Activity [19]: 97.6%
Activity [20]: Toxic
Ratio [21]: 0.6
Ratio [22]: 0.25
Ratio [23]: 0
IC50 at 48 h [5]: 0.8 µM
Ratio [24]: 0.83
selectivity ratio [25]: 1
Activity [26]: 7.6%
IC50 at 48 h [6]: 0.4 µM
Ratio [27]: 1
Activity [28]: Non-Toxic

SMILES: CC1(C)CC[C@]2(C(=O)OCCCCCOc3ccc(NC(=O)OCc4ccc(B5OC(C)(C)C(C)(C)O5)cc4)cc3)CC[C@]3(C)[C@H](C(=O)C=C4[C@@]5(C)C=C(C#N)C(=O)C(C)(C)[C@@H]5CC[C@]43C)[C@@H]2C1
pIC50 [7]: 5.51
pIC50 [9]: 5.80
pIC50 [11]: 5.57
pIC50 [12]: 6.10
pIC50 [1]: 5.85
pIC50 [2]: 5.41
pIC50 [3]: 5.57
IC50 at 48 h [4]: 3 µM
IC50 at 48 h [5]: 5.9 µM
selectivity ratio [25]: 3.75
IC50 at 48 h [6]: 4.9 µM

SMILES: CC1(C)CC[C@]2(C(=O)OCCCOC(=O)C/C=C/c3ccc(OCc4ccc(B5OC(C)(C)C(C)(C)O5)cc4)cc3)CC[C@]3(C)[C@H](C(=O)C=C4[C@@]5(C)C=C(C#N)C(=O)C(C)(C)[C@@H]5CC[C@]43C)[C@@H]2C1
pIC50 [1]: 5.06
pIC50 [2]: 5.19
pIC50 [3]: 5.00
IC50 at 48 h [4]: 6.9 µM
IC50 at 48 h [5]: 18.3 µM
IC50 at 48 h [6]: 3.3 µM

Second part, led by results:

pIC50 [1]: 5.08
pIC50 [2]: 4.81
pIC50 [3]: 4.89
SMILES: COc1cc(C(=O)OCCCCOC(=O)[C@]23CCC(C)(C)C[C@H]2[C@H]2C(=O)C=C4[C@@]5(C)C=C(C#N)C(=O)C(C)(C)[C@@H]5CC[C@@]4(C)[C@]2(C)CC3)ccc1OCc1ccc(B2OC(C)(C)C(C)(C)O2)cc1
IC50 at 48 h [4]: 9.2 µM
IC50 at 48 h [5]: 12.4 µM
IC50 at 48 h [6]: 15.6 µM

pIC50 [1]: 5.64
pIC50 [2]: 5.26
pIC50 [3]: 4.54
SMILES: COc1cc(/C=C/CC(=O)OCCCOC(=O)[C@]23CCC(C)(C)C[C@H]2[C@H]2C(=O)C=C4[C@@]5(C)C=C(C#N)C(=O)C(C)(C)[C@@H]5CC[C@@]4(C)[C@]2(C)CC3)ccc1OCc1ccc(B2OC(C)(C)C(C)(C)O2)cc1
IC50 at 48 h [4]: 4.2 µM
IC50 at 48 h [5]: 2.4 µM
IC50 at 48 h [6]: 5.6 µM

pIC50 [1]: 5.49
pIC50 [2]: 4.19
pIC50 [3]: 5.62
SMILES: CC1(C)CC[C@]2(C(=O)OCCCCCCOC(=O)c3ccc(OCc4ccc(B5OC(C)(C)C(C)(C)O5)cc4)cc3)CC[C@]3(C)[C@H](C(=O)C=C4[C@@]5(C)C=C(C#N)C(=O)C(C)(C)[C@@H]5CC[C@]43C)[C@@H]2C1
IC50 at 48 h [4]: 4.7 µM
IC50 at 48 h [5]: 3.3 µM
IC50 at 48 h [6]: 6.4 µM
